Assay results as given in ChEMBL document CHEMBL4842324, “PdCl2-catalyzed synthesis of a new class of isocoumarin derivatives containing aminosulfonyl / aminocarboxamide moiety: First identification of a isocoumarin based PDE4 inhibitor” (Eur J Med Chem, 2021).
Blank lines part the entries; values can stand above or below the compound they belong to. The source made the active and inactive calls. The rule behind the calls is not given here.

How the values were obtained:
[1] = target: cAMP and cAMP-inhibited cGMP 3',5'-cyclic phosphodiesterase 10A (Homo sapiens) (UniProt Q9Y233); assay: Inhibition of PDE10A2 (unknown origin) at 10 uM relative to control
Chain of cAMP and cAMP-inhibited cGMP 3',5'-cyclic phosphodiesterase 10A (Homo sapiens) (Q9Y233 whole entry): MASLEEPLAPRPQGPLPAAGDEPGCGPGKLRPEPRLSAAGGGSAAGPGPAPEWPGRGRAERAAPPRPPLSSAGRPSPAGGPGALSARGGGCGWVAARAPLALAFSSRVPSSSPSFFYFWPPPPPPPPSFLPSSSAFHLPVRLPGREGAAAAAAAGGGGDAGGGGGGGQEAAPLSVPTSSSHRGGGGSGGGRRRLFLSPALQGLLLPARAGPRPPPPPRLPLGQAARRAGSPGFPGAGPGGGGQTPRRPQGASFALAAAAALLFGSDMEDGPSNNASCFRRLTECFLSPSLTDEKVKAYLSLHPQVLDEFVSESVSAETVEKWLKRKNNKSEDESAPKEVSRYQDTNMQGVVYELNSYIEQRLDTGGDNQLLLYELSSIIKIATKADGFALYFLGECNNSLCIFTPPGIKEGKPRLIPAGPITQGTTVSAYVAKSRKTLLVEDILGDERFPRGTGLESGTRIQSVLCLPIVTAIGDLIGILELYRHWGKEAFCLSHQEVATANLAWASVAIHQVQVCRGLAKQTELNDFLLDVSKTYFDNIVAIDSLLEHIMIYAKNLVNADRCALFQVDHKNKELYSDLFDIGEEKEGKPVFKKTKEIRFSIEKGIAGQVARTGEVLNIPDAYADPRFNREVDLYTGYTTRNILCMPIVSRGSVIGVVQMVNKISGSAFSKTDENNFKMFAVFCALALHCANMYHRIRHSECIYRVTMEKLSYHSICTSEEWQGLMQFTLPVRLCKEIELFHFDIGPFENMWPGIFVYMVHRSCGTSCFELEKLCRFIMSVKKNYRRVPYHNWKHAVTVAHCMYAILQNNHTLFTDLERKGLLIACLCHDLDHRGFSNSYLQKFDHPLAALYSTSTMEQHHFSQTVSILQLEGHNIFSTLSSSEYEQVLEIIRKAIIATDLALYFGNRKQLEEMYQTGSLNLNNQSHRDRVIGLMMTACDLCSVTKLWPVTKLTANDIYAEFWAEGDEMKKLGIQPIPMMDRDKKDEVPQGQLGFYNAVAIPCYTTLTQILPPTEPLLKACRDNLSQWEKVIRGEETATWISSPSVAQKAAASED

[2] = target: Dual 3',5'-cyclic-AMP and -GMP phosphodiesterase 11A (Homo sapiens) (UniProt Q9HCR9); assay: Inhibition of PDE11A4 (unknown origin) at 10 uM relative to control
[3] = target: Tumor necrosis factor (Homo sapiens) (UniProt P01375); assay: Inhibition of TNF-alpha (unknown origin) at 3 uM relative to control
Chain of Tumor necrosis factor (Homo sapiens) (P01375 whole entry): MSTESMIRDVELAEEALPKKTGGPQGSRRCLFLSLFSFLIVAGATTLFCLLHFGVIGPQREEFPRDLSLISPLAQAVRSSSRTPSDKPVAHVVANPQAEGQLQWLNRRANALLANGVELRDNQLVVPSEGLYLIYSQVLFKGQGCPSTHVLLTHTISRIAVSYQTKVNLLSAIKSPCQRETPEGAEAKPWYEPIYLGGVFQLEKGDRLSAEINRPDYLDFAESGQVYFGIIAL

[4] = target: Tumor necrosis factor (Homo sapiens) (UniProt P01375); assay: Inhibition of TNF-alpha (unknown origin) at 0.3 uM relative to control
[5] = tested on: Rattus norvegicus; assay: Antiinflammatory activity against complete Freund's adjuvant induced rat model of arthritis assessed as decrease in TNF-alpha expression at 10 to 30 mg/kg, ip by immunohistochemical staining based assay; assay type: functional, organism-based; details: dose 10-30 mg/kg
[6] = target: 3',5'-cyclic-AMP phosphodiesterase 7B (Homo sapiens) (UniProt Q9NP56); assay: Inhibition of PDE7B (unknown origin) at 10 uM relative to control
Chain of 3',5'-cyclic-AMP phosphodiesterase 7B (Homo sapiens) (Q9NP56 whole entry): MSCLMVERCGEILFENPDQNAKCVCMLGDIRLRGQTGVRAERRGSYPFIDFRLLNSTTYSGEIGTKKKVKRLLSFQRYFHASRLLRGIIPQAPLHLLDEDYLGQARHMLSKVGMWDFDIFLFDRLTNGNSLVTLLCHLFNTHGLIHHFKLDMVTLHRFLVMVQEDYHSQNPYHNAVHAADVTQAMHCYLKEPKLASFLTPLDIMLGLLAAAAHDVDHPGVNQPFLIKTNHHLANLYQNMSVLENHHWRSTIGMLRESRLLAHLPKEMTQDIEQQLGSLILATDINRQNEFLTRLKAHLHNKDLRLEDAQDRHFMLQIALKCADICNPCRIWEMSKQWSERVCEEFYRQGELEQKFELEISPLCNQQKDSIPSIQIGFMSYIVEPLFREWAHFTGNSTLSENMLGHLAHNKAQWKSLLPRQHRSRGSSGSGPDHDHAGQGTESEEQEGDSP

[7] = Hepatotoxicity in zebrafish embryos assessed as effect on liver size at 1 to 100 uM; assay type: toxicity, Danio rerio; details: in vivo, dose 1-100 µM
[8] = target: Cone cGMP-specific 3',5'-cyclic phosphodiesterase subunit alpha' (Homo sapiens) (UniProt P51160); assay: Inhibition of PDE6C (unknown origin) at 10 uM relative to control
[9] = tested on: Rattus norvegicus; assay: Antiinflammatory activity against complete Freund's adjuvant induced rat model of arthritis assessed as reduction in joint degeneration changes at 30 mg/kg, ip measured on day 21 by H and E staining based histopathological analysis; assay type: functional, organism-based; details: time 21.0 day
[10] = tested on: Rattus norvegicus; assay: Antiinflammatory activity against complete Freund's adjuvant induced rat model of arthritis assessed as decrease in pathological changes at 30 mg/kg, ip measured on day 21 by H and E staining based histopathological analysis; assay type: functional, organism-based; details: time 21.0 day
[11] = tested on: Rattus norvegicus; assay: Antiinflammatory activity against complete Freund's adjuvant induced ip dosed rat model of arthritis assessed as reduction in paw swelling measured on day 21 by macroscopic analysis; assay type: functional, organism-based; details: time 21.0 day
[12] = target: High affinity 3',5'-cyclic-AMP phosphodiesterase 7A (Homo sapiens) (UniProt Q13946); assay: Inhibition of PDE7A1 (unknown origin) at 10 uM relative to control
[13] = Toxicity in zebrafish embryos assessed as induction of apoptosis at 1 to 100 uM; parameters: species or system Danio rerio; details: dose 1-100 µM
[14] = Hepatotoxicity in zebrafish embryos assessed as liver degeneration at 1 to 100 uM; assay type: toxicity, Danio rerio; details: in vivo, dose 1-100 µM
[15] = target: Dual specificity calcium/calmodulin-dependent 3',5'-cyclic nucleotide phosphodiesterase 1C (Homo sapiens) (UniProt Q14123); assay: Inhibition of PDE1C (unknown origin) at 10 uM relative to control
[16] = target: cAMP and cAMP-inhibited cGMP 3',5'-cyclic phosphodiesterase 10A (Homo sapiens) (UniProt Q9Y233); assay: Inhibition of PDE10A1 (unknown origin) at 10 uM relative to control
[17] = species: Homo sapiens; assay: Selectivity ratio of IC50 for PDE4D (unknown origin) to IC50 for PDE4B (unknown origin)
[18] = target: T1, 3',5'-cyclic-AMP phosphodiesterase 4B (Homo sapiens, UniProt Q07343); assay: Inhibition of PDE4B (unknown origin) using [3H]cAMP as substrate at 10 uM incubated for 30 mins by scintillation proximity assay relative to control
T1 sequence (Q07343 whole entry): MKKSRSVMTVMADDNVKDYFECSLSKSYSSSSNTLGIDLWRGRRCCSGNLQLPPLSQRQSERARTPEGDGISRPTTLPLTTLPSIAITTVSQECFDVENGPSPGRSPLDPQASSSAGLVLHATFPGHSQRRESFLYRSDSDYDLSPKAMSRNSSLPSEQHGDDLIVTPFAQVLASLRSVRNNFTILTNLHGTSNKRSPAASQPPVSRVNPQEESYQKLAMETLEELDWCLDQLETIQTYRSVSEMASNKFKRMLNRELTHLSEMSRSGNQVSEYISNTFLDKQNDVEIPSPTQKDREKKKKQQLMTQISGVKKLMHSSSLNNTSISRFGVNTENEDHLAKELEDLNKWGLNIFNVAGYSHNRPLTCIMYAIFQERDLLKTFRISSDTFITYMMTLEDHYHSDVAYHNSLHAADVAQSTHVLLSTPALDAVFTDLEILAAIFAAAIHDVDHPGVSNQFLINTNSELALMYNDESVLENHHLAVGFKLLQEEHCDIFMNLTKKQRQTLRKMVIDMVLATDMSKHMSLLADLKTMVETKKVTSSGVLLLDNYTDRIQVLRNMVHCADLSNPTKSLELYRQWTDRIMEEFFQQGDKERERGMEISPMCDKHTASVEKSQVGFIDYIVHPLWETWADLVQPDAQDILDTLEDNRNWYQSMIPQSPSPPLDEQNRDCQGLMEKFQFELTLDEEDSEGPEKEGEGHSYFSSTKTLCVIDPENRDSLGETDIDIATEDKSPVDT

[19] = tested on: Rattus norvegicus; assay: Antiinflammatory activity against complete Freund's adjuvant induced rat model of arthritis assessed as improvement in intestinal absorption at 30 mg/kg, ip measured on day 21; assay type: functional, organism-based; details: time 21.0 day
[20] = tested on: Rattus norvegicus; assay: Antiinflammatory activity against complete Freund's adjuvant induced rat model of arthritis assessed as effect on IL-6 expression at 10 to 30 mg/kg, ip by immunohistochemical staining based assay; assay type: functional, organism-based; details: dose 10-30 mg/kg
[21] = target: cGMP-inhibited 3',5'-cyclic phosphodiesterase 3B (Homo sapiens) (UniProt Q13370); assay: Inhibition of PDE3B (unknown origin) at 10 uM relative to control
Chain of cGMP-inhibited 3',5'-cyclic phosphodiesterase 3B (Homo sapiens) (Q13370 whole entry, looked up): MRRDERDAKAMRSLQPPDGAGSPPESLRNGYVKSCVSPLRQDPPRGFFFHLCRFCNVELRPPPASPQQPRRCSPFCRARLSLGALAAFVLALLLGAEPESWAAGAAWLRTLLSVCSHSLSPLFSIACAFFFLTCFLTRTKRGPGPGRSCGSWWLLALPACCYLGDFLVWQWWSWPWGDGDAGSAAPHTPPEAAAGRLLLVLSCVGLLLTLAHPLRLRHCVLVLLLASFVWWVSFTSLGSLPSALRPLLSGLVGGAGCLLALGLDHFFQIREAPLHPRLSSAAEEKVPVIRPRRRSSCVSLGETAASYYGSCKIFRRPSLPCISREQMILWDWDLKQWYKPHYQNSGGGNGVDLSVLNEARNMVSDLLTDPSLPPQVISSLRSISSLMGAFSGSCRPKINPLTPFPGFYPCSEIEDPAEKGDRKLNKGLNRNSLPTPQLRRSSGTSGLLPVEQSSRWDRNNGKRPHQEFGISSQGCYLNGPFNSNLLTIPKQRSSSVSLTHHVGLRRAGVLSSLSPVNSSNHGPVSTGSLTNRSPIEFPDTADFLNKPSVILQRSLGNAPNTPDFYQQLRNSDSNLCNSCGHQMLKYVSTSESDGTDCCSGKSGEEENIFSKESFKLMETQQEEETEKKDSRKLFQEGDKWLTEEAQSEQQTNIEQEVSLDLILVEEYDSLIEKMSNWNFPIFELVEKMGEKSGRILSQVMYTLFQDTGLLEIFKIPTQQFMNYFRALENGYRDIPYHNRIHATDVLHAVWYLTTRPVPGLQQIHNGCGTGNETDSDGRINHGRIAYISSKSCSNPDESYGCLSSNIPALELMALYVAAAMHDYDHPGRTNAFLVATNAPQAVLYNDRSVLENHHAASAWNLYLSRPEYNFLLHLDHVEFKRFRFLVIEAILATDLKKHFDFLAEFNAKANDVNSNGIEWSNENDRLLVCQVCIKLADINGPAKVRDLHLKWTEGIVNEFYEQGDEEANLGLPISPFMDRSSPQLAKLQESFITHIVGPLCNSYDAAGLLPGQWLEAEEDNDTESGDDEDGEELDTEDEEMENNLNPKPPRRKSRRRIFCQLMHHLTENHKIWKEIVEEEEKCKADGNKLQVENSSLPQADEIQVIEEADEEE

[22] = Toxicity in zebrafish embryos assessed as teratogenicity at 1 to 100 uM; parameters: species or system Danio rerio; details: in vivo, dose 1-100 µM
[23] = target: T1, 3',5'-cyclic-AMP phosphodiesterase 4B; assay: Inhibition of PDE4B (unknown origin) using [3H]cAMP as substrate incubated for 30 mins by scintillation proximity assay
[24] = target: cGMP-specific 3',5'-cyclic phosphodiesterase (Homo sapiens) (UniProt O76074); assay: Inhibition of PDE5A1 (unknown origin) at 10 uM relative to control
[25] = tested on: Rattus norvegicus; assay: Antiinflammatory activity against complete Freund's adjuvant induced rat model of arthritis assessed as reduction in paw volume at 30 mg/kg, ip measured on day 21 by macroscopic analysis; assay type: functional, organism-based; details: time 21.0 day
[26] = target: Tumor necrosis factor (Homo sapiens) (UniProt P01375); assay: Inhibition of TNF-alpha (unknown origin) at 10 uM relative to control
[27] = target: 3',5'-cyclic-AMP phosphodiesterase 4D (Homo sapiens, UniProt Q08499); assay: Inhibition of PDE4D (unknown origin)
Chain of 3',5'-cyclic-AMP phosphodiesterase 4D (Q08499 whole entry): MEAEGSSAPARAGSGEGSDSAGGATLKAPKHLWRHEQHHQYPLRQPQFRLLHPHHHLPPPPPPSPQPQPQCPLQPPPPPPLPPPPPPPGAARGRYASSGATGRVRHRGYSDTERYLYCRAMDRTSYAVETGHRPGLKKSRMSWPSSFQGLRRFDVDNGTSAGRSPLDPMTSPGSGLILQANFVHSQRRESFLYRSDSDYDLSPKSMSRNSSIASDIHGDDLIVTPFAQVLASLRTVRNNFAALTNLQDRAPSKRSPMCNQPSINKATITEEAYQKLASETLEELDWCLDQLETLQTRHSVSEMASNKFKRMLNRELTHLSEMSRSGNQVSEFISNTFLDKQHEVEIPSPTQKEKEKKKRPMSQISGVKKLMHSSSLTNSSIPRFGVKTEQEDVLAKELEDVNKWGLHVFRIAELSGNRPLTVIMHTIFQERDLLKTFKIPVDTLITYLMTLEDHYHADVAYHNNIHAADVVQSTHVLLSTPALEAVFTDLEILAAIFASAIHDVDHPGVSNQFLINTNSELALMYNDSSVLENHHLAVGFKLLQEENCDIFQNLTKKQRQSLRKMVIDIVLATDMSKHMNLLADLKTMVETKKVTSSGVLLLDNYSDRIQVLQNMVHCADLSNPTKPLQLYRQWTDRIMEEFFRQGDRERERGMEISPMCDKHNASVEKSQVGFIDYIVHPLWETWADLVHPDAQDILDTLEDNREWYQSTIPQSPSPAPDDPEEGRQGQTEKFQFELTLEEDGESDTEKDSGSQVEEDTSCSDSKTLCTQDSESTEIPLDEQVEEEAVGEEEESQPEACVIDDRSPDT

[28] = target: High affinity cAMP-specific and IBMX-insensitive 3',5'-cyclic phosphodiesterase 8A (Homo sapiens) (UniProt O60658); assay: Inhibition of PDE8A1 (unknown origin) at 10 uM relative to control
[29] = target: Dual specificity calcium/calmodulin-dependent 3',5'-cyclic nucleotide phosphodiesterase 1A (Homo sapiens) (UniProt P54750); assay: Inhibition of PDE1A1 (unknown origin) at 10 uM relative to control
[30] = target: High affinity cGMP-specific 3',5'-cyclic phosphodiesterase 9A (Homo sapiens) (UniProt O76083); assay: Inhibition of PDE9A2 (unknown origin) at 10 uM relative to control
[31] = target: cGMP-dependent 3',5'-cyclic phosphodiesterase (Homo sapiens) (UniProt O00408); assay: Inhibition of PDE2A1 (unknown origin) at 10 uM relative to control
[32] = target: cGMP-inhibited 3',5'-cyclic phosphodiesterase 3A (Homo sapiens) (UniProt Q14432); assay: Inhibition of PDE3A (unknown origin) at 10 uM relative to control
[33] = tested on: RAW264.7; assay: Cytotoxicity against mouse RAW264.7 cells assessed as reduction in cell viability measured after 48 hrs by MTT assay; assay type: cell-based; details: RAW264.7, 48 h
[34] = Cardiac toxicity in zebrafish embryos assessed as effect on heart rate at 1 to 100 uM; parameters: species or system Danio rerio; details: in vivo, dose 1-100 µM
[35] = target: Tumor necrosis factor (Homo sapiens) (UniProt P01375); assay: Inhibition of TNF-alpha (unknown origin) at 1 uM relative to control
[36] = target: Dual specificity calcium/calmodulin-dependent 3',5'-cyclic nucleotide phosphodiesterase 1B (Homo sapiens) (UniProt Q01064); assay: Inhibition of PDE1B (unknown origin) at 10 uM relative to control
Chain of Dual specificity calcium/calmodulin-dependent 3',5'-cyclic nucleotide phosphodiesterase 1B (Homo sapiens) (Q01064 whole entry): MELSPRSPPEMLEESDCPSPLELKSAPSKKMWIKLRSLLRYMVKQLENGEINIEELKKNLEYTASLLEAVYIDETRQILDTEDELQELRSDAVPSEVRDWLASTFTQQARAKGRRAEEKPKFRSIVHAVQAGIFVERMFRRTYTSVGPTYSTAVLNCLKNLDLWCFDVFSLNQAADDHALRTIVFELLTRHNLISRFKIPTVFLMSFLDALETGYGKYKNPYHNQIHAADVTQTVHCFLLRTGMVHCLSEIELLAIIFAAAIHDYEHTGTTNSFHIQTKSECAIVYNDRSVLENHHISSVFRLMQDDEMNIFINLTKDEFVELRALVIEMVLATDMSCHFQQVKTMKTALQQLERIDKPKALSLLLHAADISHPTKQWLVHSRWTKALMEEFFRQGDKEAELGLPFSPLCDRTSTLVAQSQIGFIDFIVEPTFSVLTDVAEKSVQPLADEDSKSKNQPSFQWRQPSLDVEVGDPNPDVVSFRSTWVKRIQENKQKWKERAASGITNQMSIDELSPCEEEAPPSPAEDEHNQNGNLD

[37] = target: Tumor necrosis factor (Homo sapiens) (UniProt P01375); assay: Inhibition of TNF-alpha (unknown origin) at 0.1 uM relative to control
[38] = tested on: Rattus norvegicus; assay: Antiinflammatory activity against complete Freund's adjuvant induced rat model of arthritis assessed as reduction in joint structure deformity at 1 mg/kg, ip measured on day 21 by radiographic analysis; assay type: functional, organism-based; details: time 21.0 day
[39] = tested on: Rattus norvegicus; assay: Antiinflammatory activity against complete Freund's adjuvant induced rat model of arthritis assessed as reduction in paw volume at 1 mg/kg, po administered once daily measured on day 21 by macroscopic analysis; assay type: functional, organism-based; details: time 21.0 day

inhibition [1]: 19%
inhibition [2]: 11%
inhibition [6]: 3%
inhibition [8]: 10%
inhibition [12]: 6%
inhibition [15]: 24%
inhibition [16]: 12%
Ratio IC50 [17]: 2.5
inhibition [18]: 96%
inhibition [21]: 7%
IC50 [23]: 0.54 µM
inhibition [24]: 8%
IC50 [27]: 1.34 µM
inhibition [28]: 2%
inhibition [29]: 21%
inhibition [30]: 8%
inhibition [31]: 9%
inhibition [32]: 11%
inhibition [36]: 18%
Compound: C=CCc1c(-c2cccc(NS(=O)(=O)c3cccs3)c2)oc(=O)c2cc(F)ccc12
inhibition [3]: 45.6%
inhibition [4]: 30.9%
Activity [5]: Active
Activity [7]: Non-Toxic
Activity [9]: Active
Activity [10]: Active
Activity [11]: Dose-Dependent Effect
Activity [13]: Non-Toxic
Activity [14]: Non-Toxic
Activity [19]: Active
Activity [20]: inactive
Activity [22]: Non-Toxic
Activity [25]: Active
inhibition [26]: 65.5%
IC50 [33]: > 100 µM
Activity [34]: Non-Toxic
inhibition [35]: 40.3%

inhibition [18]: 63.5%
Compound: C=CCc1c(-c2ccc(NS(=O)(=O)c3ccc(C)cc3)cc2)oc(=O)c2ccccc12

inhibition [18]: 77.8%
IC50 [23]: 2.07 µM
Compound: C=CCc1c(-c2cccc(NS(=O)(=O)c3ccc(C)cc3)c2)oc(=O)c2ccccc12

inhibition [18]: 62.2%
Compound: C=CCc1c(-c2cccc(NS(C)(=O)=O)c2)oc(=O)c2ccc(Cl)cc12

inhibition [18]: 55.8%
Compound: C=CCc1c(-c2cccc(NS(C)(=O)=O)c2)oc(=O)c2ccccc12

inhibition [18]: 94%
IC50 [23]: 2.36 µM
Compound: C=CCc1c(-c2ccc(NS(=O)(=O)c3ccc(C)cc3)cc2)oc(=O)c2cc(F)ccc12

inhibition [18]: 72.6%
Compound: C=CCc1c(-c2cccc(NC(=O)c3ccccc3)c2)oc(=O)c2ccccc12

inhibition [18]: 82.9%
IC50 [23]: 1.24 µM
Compound: C=CCc1c(-c2cccc(NS(=O)(=O)c3ccccc3)c2)oc(=O)c2ccccc12

inhibition [18]: 56%
Compound: C=CCc1c(-c2ccc(NS(C)(=O)=O)cc2)oc(=O)c2ccc(Cl)cc12

inhibition [18]: 94.4%
IC50 [23]: 1.91 µM
Compound: C=CCc1c(-c2ccc(NS(=O)(=O)c3ccccc3)cc2)oc(=O)c2cc(F)ccc12

Ratio IC50 [17]: 2
inhibition [18]: 82.2%
IC50 [23]: 0.43 µM
IC50 [27]: 0.9 µM
Compound: C=CCc1c(-c2cccc(NS(=O)(=O)c3ccccc3)c2)oc(=O)c2cc(F)ccc12

inhibition [18]: 81.2%
IC50 [23]: 4.78 µM
Compound: C=CCc1c(-c2cccc(NS(=O)(=O)c3ccccc3)c2)oc(=O)c2ccc(Cl)cc12

Second part, the compound before the results:

Compound: C=CCc1c(-c2cccc(NS(=O)(=O)c3cccs3)c2)oc(=O)c2ccc(Cl)cc12
inhibition [18]: 75.7%
IC50 [23]: 4.01 µM

Compound: C=CCc1c(-c2ccc(NS(C)(=O)=O)cc2)oc(=O)c2ccccc12
inhibition [18]: 54.9%

Compound: C=CCc1c(-c2cccc(NS(=O)(=O)c3ccc(C)cc3)c2)oc(=O)c2cc(F)ccc12
inhibition [18]: 79.7%
IC50 [23]: 3.04 µM

Compound: C=CCc1c(-c2cccc(NS(C)(=O)=O)c2)oc(=O)c2cc(F)ccc12
inhibition [18]: 90.9%
IC50 [23]: 1.94 µM

Compound: C=CCc1c(-c2cccc(NC(=O)c3ccccc3)c2)oc(=O)c2cc(F)ccc12
inhibition [18]: 74.6%

Compound: C=CCc1c(-c2cccc(NS(=O)(=O)c3cccs3)c2)oc(=O)c2ccccc12
inhibition [18]: 85.9%
IC50 [23]: 1.76 µM

Compound: C=CCc1c(-c2cccc(NS(=O)(=O)c3ccc(C(F)(F)F)cc3)c2)oc(=O)c2ccccc12
inhibition [18]: 55.3%

Compound: COc1ccc(C2CNC(=O)C2)cc1OC1CCCC1 (stereo unspecified)
inhibition [37]: 50.3%
inhibition [18]: 77.2%

Compound: C=CCc1c(-c2cccc(NS(=O)(=O)c3ccc(OC)cc3)c2)oc(=O)c2ccccc12
inhibition [18]: 80%
IC50 [23]: 3.33 µM

Compound: C=CCc1c(-c2ccc(NS(=O)(=O)c3ccccc3)cc2)oc(=O)c2ccccc12
inhibition [18]: 87.6%
IC50 [23]: 3.91 µM

Compound: CN(Cc1cnc2nc(N)nc(N)c2n1)c1ccc(C(=O)N[C@@H](CCC(=O)O)C(=O)O)cc1
Activity [38]: inactive
Activity [5]: Active
Activity [39]: Active

Compound: C=CCc1c(-c2ccc(NC(=O)c3ccccc3)cc2)oc(=O)c2ccccc12
inhibition [18]: 46.5%
